Laboratory results from paper PMC11061149, “Protein mimetic 2D FAST rescues alpha synuclein aggregation mediated early and post disease Parkinson’s phenotypes” (Nature Communications, 2024).
Values joined by “and” are separate entries in the source; they are usually repeats but may differ in a detail not shown here. Identical values can stand only once.

Key:
[1] = biological target: T1, α-Synuclein (αS) aggregation (Homo sapiens, UniProt P37840); assay: Thioflavin T (ThT) dye-based αS aggregation assay (de novo); type: biochemical; settings: for ThT intensity of Synuclein with ligand, Average / ThT intensity of Synuclein with ligand, Trial 1-3: sheet S17; for ThT intensity of Synuclein with ligand, Average: average of 3 trials, Synuclein alone 206, ThT control 37; for ThT intensity of Synuclein with ligand, Trial 1-3: individual trials, Synuclein alone average 206, ThT control average 37
T1 construct: made in house; host or cells: E. coli BL21(DE3)
Description: We used a 2D FAST approach in OPs to identify potent antagonists of the aggregation of αS. In this approach, we start with a library of monopyridyls with different functional groups. The library of monopyridyls was synthesized using 2-chloro-6-methyl-3-nitropyridine as a common precursor, which was treated with primary alcohols with diverse side chain functionalities via a one-pot reaction (Fig. 1B, a and see Supplementary information for synthetic details). […] We selected the side chains containing hydrophobic, polar, positively charged, and negatively charged functional groups, which mimic the side chains of the amino acids (Fig. 1C). […] The monopyridyl library was screened against the aggregation of 100 μM αS at an equimolar ratio using Thioflavin T (ThT) dye-based aggregation assay (Fig. 1B, b). […] The chloro-dipyridyl was reacted with a library of primary amines/thiols to synthesize a library of dipyridyls (Fig. 1B, e) using a one-pot reaction. […] However, a few dipyridyls required column chromatography to separate them from the starting material side chains because of their very high boiling point (7 out of 21 dipyridyls required column, Supplementary Fig. 1). […]
Aggregation Kinetics were measured according to a previously described protocol. […] The solutions were placed in a ThermoMixer (Eppendorf, Hamberg, Germany) at 37 °C with constant shaking at 1300 rpm (rpm). At different time points, 5 μL aliquots of each αS solution were added to 95 μL PBS containing 50 μM Thioflavin T (ThT) dye in a Costar black 96 well plate (Corning Inc., Kennebunk, ME). ThT fluorescence intensity was measured (λex = 450 nm and λem = 490 nm) on an Infinite M200PRO plate reader (Tecan, Männedorf, Switzerland), and plotted against time to give a sigmoidal curve typical of amyloid aggregation. For the single point ThT aggregation, 100 μM αS, in the absence and presence of ligands, was aggregated under the described conditions and the ThT fluorescence was reported at 96 h. The reported ThT intensity values are the average of each experiment conducted in triplicate, with the error bars representing the standard deviations or standard error of the mean (s.e.m.) as described in the main manuscript.

[2] = test system: UA196 worms (human αS and GFP in DA neurons); assay: Confocal counting of healthy DA neurons in UA196 worms, early treatment (day two and four); type: in vivo, C. elegans; settings: for number of intact DA neurons in UA196 worms (max. 60): 50 µM ligand on day two and four, day 15 (untreated 13.5); for Number of healthy DA neurons per trial (sheet 7L): UA196 worms + ligand, Day 15, single trials; for Total neurons, UA196 worms+Ligands: one value per trial, day not given for ligand (controls: Day 3, Day 15)
From the text: The aggregation of αS is associated with the neurodegeneration of DA neurons, which is a pathological hallmark of PD. Next, we investigated the neuroprotective effect of NS163 on the intraneuronal αS aggregation-mediated degeneration of DA neurons in a well-established C. elegans PD model (UA196)[20],[72]–[75]. The UA196 worms express both human αS and GFP in DA neurons under the control of the dopamine promoter genotype (Pdat-1::GFP; Pdat-1::α-SYN). The expression and aggregation of αS in six DA neurons that are located within the anterior region of worms lead to progressive neurodegeneration characteristics during the aging of UA196 worms. This strain has been used to gain insights into the PD-associated mechanisms and to assess the neuroprotective effect of ligands against the intraneuronal αS aggregation[20],[72]–[75]. During the aging of worms, αS protein aggregates and degenerates the DA neurons as represented by the gradual loss of cell bodies as observed from day 3 (Fig. 7b, c, filled red arrow) to day 5 (Fig. 7d, e, empty red arrow), to day 15 (Fig. 7f, g, empty red arrow). Additionally, there was fragmentation and blebbing of neurites from day 3 (Fig. 7b, c, filled yellow arrow) to day 5 (Fig. 7d, e, empty yellow arrow), which has been observed by others as well[72]–[75]. The maximum number of healthy DA neurons in one UA196 worm is six on day 3 (no degeneration) and we used 10 worms/biological replicate, which makes a total of 60 healthy DA neurons/biological replicate. Therefore, for each study, the maximum number of healthy DA neurons in UA196 worms is 60 as an average for each biological replicate. […] None of the UA196 worms had all six healthy DA neurons on day 5 (Fig. 7k, -NS163) and there was a gradual decline in the total number of healthy DA neurons in UA196 worms (Supplementary Fig. 26a). […] The average number of intact DA neurons in UA196 worms treated with NS163 was 59.5, 58.7, and 57.3 on day five, 10, and 15, respectively (Fig. 7j, red line). Additionally, the total number of treated worms with all six intact DA neurons were 57, 52, and 47 on day 5, 10, and 15, respectively (Fig. 7k, Supplementary Fig. 26b).
In UA196 strain, human αS and GFP are expressed in DA neurons under control of a dopamine transporter-specific promoter [Pdat-1::α-syn+Pdat-1::GFP], which results in age-dependent neurodegeneration of six DA neurons.
This experiment was performed based on previously described protocols with slight modifications[24],[65],[88]. Briefly, the worm strains (NL5901 or UA196) were bleached at the same time and the eggs were incubated on PLATE 1. On day two, the worms were divided into two batches. One half of the worms were transferred (using M9 buffer) on PLATE 2 (without ligand) and the second half of the worms were transferred to PLATE 3 (with ligand). The concentration of the ligands varied from 10–50 µM as described in the main manuscript. The worms were incubated on PLATE 2 or PLATE 3 up to day 3 at 20 °C in an incubator with constant humidity. On day four, the ligand (10–50 µM, stock conc. = 10 mM in DMSO, DMSO from 0.1–0.5%, v/v) was added again to PLATE 3. For confocal imaging, at least 10 worms per condition (from PLATE 2 or PLATE 3) were transferred to a cover slide containing an anesthetic (40 mM sodium azide), and mounted on glass microscope slide containing 2% agarose pads using a reported protocol. The images of the worms were collected using an Olympus Fluoview FV3000 confocal/2-photon microscope (40 x Plan-Apo/1.3 NA objective with DIC capability) and processed using the OlympusViewer in ImageJ software. For NL5901 worms, the inclusions of the aggregated αS (GFP puncta in the muscle cells) were manually counted (10 worms per condition) for the five-day imaging period (day 5 to day 9) for PLATE 2 or PLATE 3. […]

UA196 worms = assay: Confocal counting of healthy DA neurons, post-disease onset PD model of UA196 worms (treatment on day five); type: in vivo, C. elegans; settings: for number of intact healthy DA neurons (max. 60): day 15 (untreated 13.8 / 12.8); for healthy DA neurons per trial: UA196 worms+Ligands, single trials 1-6, day not given; for Healthy DA neurons, UA196 worms+Ligands: individual trials 1-6
Description: The UA196 worms were bleached, and the eggs were incubated on PLATE 1. On day two, the UA196 worms were transferred (using M9 buffer) on PLATE 2 (without ligand). On day five, 10 UA196 worms were used to determine the number of healthy DA worms using confocal imaging (as described earlier) prior to the treatment with ligands on day five. In tandem, ~50 worms were transferred to PLATE 3 (with ligand) using M9 buffer (10-20 µL) and the plate was incubated at 20 °C in the incubator. On days 10 and 15, 10 UA196 worms from PLATE 2 (without ligand) and PLATE 3 (with ligand) were used to determine the number of healthy DA worms using confocal imaging (as described earlier). For each condition, six biological replicates were performed and at least 10 technical replicates were used for each biological replicate. […] (n = 6 independent experiments and each n consisted of a minimum of ten technical replicates).

[3] = 100 µM αS + equimolar ligand, comparison with reported ligands Fig. 5f, time 0 hr

ThT fluorescence intensity, Average [1, 3]	ThT fluorescence intensity, Average ([1]; Fig. 5f profile, time 6 hr)	ThT fluorescence intensity, Average ([1]; Fig. 5f profile, time 12 hr)	ThT fluorescence intensity, Average ([1]; Fig. 5f profile, time 24 hr)	ThT fluorescence intensity, Average ([1]; Fig. 5f profile, time 36 hr)	ThT fluorescence intensity, Average ([1]; Fig. 5f profile, time 48 hr)	ThT fluorescence intensity, Average ([1]; Fig. 5f profile, time 72 hr)	ThT fluorescence intensity, Average ([1]; Fig. 5f profile, time 96 hr)	ThT intensity of Synuclein with ligand, Average [1]	ThT intensity of Synuclein with ligand, Trial 1-3 [1]	decrease of the overall ThT intensity ([1]; 100 µM αS, equimolar, after 96 h)	SMILES	number of intact DA neurons in UA196 worms (max. 60) [2]	Number of healthy DA neurons per trial (sheet 7L) [2]	Total neurons, UA196 worms+Ligands [2]	number of intact healthy DA neurons (max. 60) (UA196 worms; 50 μM ligand on day five)	healthy DA neurons per trial (UA196 worms)	Healthy DA neurons, UA196 worms+Ligands (UA196 worms)	rescue of the degeneration of DA neurons in UA196 worms, in words ([2]; 50 μM ligand)	rescue of the degeneration of DA neurons in the post-disease onset PD model, in words (UA196 worms; 50 μM ligand on day five, day 15)
55.6667	61.3333	52.3333	42	69.6667	159.667	195	186	186.333	176 and 194 and 189		C=C(c1ccc(C(=O)O)cc1)c1cc2c(cc1C)C(C)(C)CCC2(C)C [Bexarotene]	19.3	19 and 22 and 20 and 16 and 21 and 18	19 and 22 and 20 and 16 and 21 and 18	13.2	11 and 17 and 13 and 10	11 and 17 and 13 and 10		
56	50.6667	62.3333	61.3333	75.6667	84	151.667	150.333	150.333	126 and 174 and 151	~ 25%	O=C(O[C@@H]1Cc2c(O)cc(O)cc2O[C@@H]1c1cc(O)c(O)c(O)c1)c1cc(O)c(O)c(O)c1 [EGCG]	30.5	26 and 33 and 32 and 27 and 31 and 34	26 and 33 and 32 and 27 and 31 and 34	20.5	24 and 17 and 26 and 18 and 21	24 and 17 and 26 and 18 and 21	moderate in rescuing	moderate in rescuing
49.6667	48.3333	49.6667	78.6667	140.667	137	175.333	229.667	229.667	238.6 and 233 and 217.4		OCCc1ccc(O)cc1 [Tyrosol]	21.7	22 and 23 and 17 and 21 and 24	22 and 23 and 17 and 21 and 24	14.3	12 and 19 and 17 and 11 and 15	12 and 19 and 17 and 11 and 15		
62.3333	44	66.6667	135.333	121.333	133.333	167.333	165.667	165.667	177.5 and 155 and 164.5		CCCC(CCC)C(=O)O [Valporic acid]	18.7	21 and 16 and 22 and 17 and 20	21 and 16 and 22 and 17 and 20	13.5	9 and 17 and 15 and 11 and 16 and 13	9 and 17 and 15 and 11 and 16 and 13		
